From patent publication US11767303B2, “Compounds and methods for inhibiting viral replication and methods of treating and preventing flaviviral infections” (priority 2020, dated 2023)
Like-named read-outs stand apart in the source and are kept apart here.

Tests used:
DENV2 = assay: Viral titer (plaque) reduction assay, DENV2 in A549 cells; format: cell-based, Dengue virus serotype 2; conditions: Dengue virus, DENV2, A549 cells
Method: Viral Titer Reduction Assay. A viral titer reduction assay was used to determine the compounds' effect on DENV2 and ZIKV strains, as described previously. […] Human A549 lung carcinoma cells and human primary neural progenitor cells were used, as described previously. […] 13:e1006411 (2017), which are hereby incorporated by reference in their entirety. All experiments were performed in triplicates.
A viral plaque reduction assay was performed next to evaluate the antiviral efficacy of these derivatives. Human lung carcinoma A549 cells were infected with DENV2 in the presence of a concentration series of derivatives or a dimethyl sulfoxide (DMSO) control, and viral titers were measured at 48 hrs post-infection, as described previously.

[1] = WST-8 cell proliferation cytotoxicity assay; format: cell-based, human; conditions: human; Table 4, preliminary SAR, A549 cells; read-out: CC50
Method: (§1) Cytotoxicity Assay. […] All experiments were performed in triplicates.
(§2) To address this concern, next the compound cytotoxicity CC50 was measured using a WST-8 cell proliferation assay, as described previously.

A549 cells = assay: WST-8 cell proliferation cytotoxicity assay; format: cell-based, human; conditions: A549 cells; read-out: CC50 (A549)
Method: as §1, §2

[2] = Pharmacokinetics in B6 mice after oral gavage; conditions: B6 mice, single oral dose 40 mg/kg, plasma
From the text: Pharmacokinetics. […] Fan et al., “Contributions of Hepatic and Intestinal Metabolism to the Disposition of Niclosamide, a Repurposed Drug with Poor Bioavailability,” Drug Metab. Dispos. 47:756-763 (2019), which is hereby incorporated by reference in its entirety. […] Student's t-test was used. P values<0.05 were considered statistically significant.

ZIKV PRVABC59 = assay: ZIKV viremia mouse model (A129 mice); format: in vivo; conditions: 20 mg/kg/day oral gavage, day 3 post-infection, vs vehicle
Method: In vivo protection efficacy. All animal studies involving infectious ZIKV were conducted at an Animal Biosafety Level 2 (ABSL-2) facility at the Wadsworth Center with Institutional Biosafety and Animal Welfare Committee approval.
A group of four-week-old A129 mice were infected by subcutaneous injection with 1.7×10^5 PFU of the PRVABC59 strain. […] Mice were observed daily for signs of illness and mortality. Viremia on day 3 post-infection (pi) was determined by plaque forming assay, and statistical analysis was performed using the unpaired, two-tailed t-test (Prism).
Finally, the in vivo antiviral efficacy was evaluated using a viremia mouse model, as described previously. Zhang et al., “Characterization of the Contemporary Zika Virus in Immunocompetent Mice,” Hum. Vaccines Immunother. 12:3107-3109 (2016) and Larocca et al., “Vaccine Protection Against Zika Virus From Brazil,” Nature 536:474-478 (2016), both of which are hereby incorporated by reference in their entirety.

[3] = Repeated oral dosing toxicity in mice; format: in vivo, mouse; conditions: repeated oral dosing 40 mg/kg/day for 7 days
[4] = not told
in vitro = conditions: not told, Perme. (cell permeability)

In the case of `O=C(Nc1ccc([N+](=O)[O-])cc1Cl)c1cccc([N+](=O)[O-])c1O` [JMX0207, N-(2-Chloro-4-nitrophenyl)-2-hydroxy-3-nitrobenzamide], the EC50 (DENV2; 48 hrs post-infection, read-out: EC50-DN2 (A549)) is reported as 310 nM, the EC50 (DENV2; Table 4, preliminary SAR, read-out: EC50-DN2) is reported as 360 nM and the CC50 [1] is reported as 33.9 µM. The CC50 (A549 cells) was 31.9 µM, the “AUC0→∞ ± S.D.” value [2] was 2719 ± 1018 and the “Tmax ± S.D.” value [2] was 1.2 ± 0.5 h. The “T1/2 ± S.D.” value ([2]; 40 mg/kg) was 11 ± 6.8 h, the Cmax ([2]; read-out: Cmax ± S.D.) was 145 µM and the ZIKV-induced viremia (ZIKV PRVABC59) was “significant reduction in ZIKV-induced viremia”. The sign of toxicity [3] was “did not display any sign of toxicity”, the “Perme. (cell permeability)” value [4] was 1.3e-06 cm/s and the Papp (in vitro) was greater than 1 ×10⁻⁶ cm/s.
